Experimental data published in US20220204490A1, “Substituted 4-[5-(Benzofuran-2-yl)-1,2,4-Oxadiazol-3-yl]Benzoic Acid Compounds for Use in Therapy for Neuropathic Pain” (King's College London, priority 2019, published 2022).

Assays:
[1] = tested on: rats subjected to L5 SNL; test: Pain threshold, mechanical allodynia (von Frey hairs) after nerve ligation; format: in vivo; settings: rat L5 SNL; 3 mg/kg po every other day for 4 weeks; versus placebo; FIG. 1
Source text: (§1) Adult male Sprague-Dawley rats (150-200 g) were housed under natural light: dark cycles and provided water and food ad lib. They were habituated to the testing paradigms for 3-5 days before data collection. All protocols were approved by the Animal Care and Use Committee of Kings College London and UK Home Office.
(§2) Animals were studied using the standard model for neuropathic pain (lumbar 5 spinal nerve ligation, L5 SNL; see, e.g., Kim et al., 1992). This is the most widely used model in neuropathic pain studies because of its high reproducibility of spontaneous and evoked pain (hyperalgesia, allodynia) and the absence of autotomy (see, e.g., Barrot, 2012; Huang et al., 2016).
(§3) Adult rats received a partial nerve ligation of the left sciatic nerve (see, e.g., Seltzer et al., 1990) under isoflurane (Abbott Animal Health) inhalation anesthesia. A small incision was made midway up the left thigh to expose the sciatic nerve. […]
(§4) Pain thresholds were measured according to the methods described below, baseline at 1 day prior to surgery, and at 1, 6, 9, 16, 23, and 28 days after surgery.
Static mechanical withdrawal thresholds were assessed by applying von Frey hairs (Touch Test, Stoelting, Ill., USA) to the plantar surface of the hind paw. […] A positive response was recorded when a 40% withdrawal response occurred over 5 applications. […]

[2] = tested on: rats subjected to L5 SNL; test: Pain threshold, thermal hyperalgesia, hot plate (radiant heat paw withdrawal latency); format: in vivo; settings: rat L5 SNL; 3 mg/kg po every other day for 4 weeks; versus placebo; FIG. 2
Source text: as §1, §2
as §3, with “nerve. The nerve was carefully cleared of surrounding connective tissues at a site near the trochanter just distal to the point at which the posterior biceps semitendinosus nerve branches off the common sciatic nerve.” for “nerve.”
as §4
Thermal hyperalgesia was assessed using a modified method of Hargreaves et al., 1988. […]

[3] = tested on: rats subjected to L5 SNL; test: Pain threshold, thermal hyperalgesia, cold plate; format: in vivo; settings: rat L5 SNL; 3 mg/kg po every other day for 4 weeks; plate at 4 °C; versus placebo; FIG. 3
Source text: as §1, §2, §3, §4
Withdrawal of the hind paw in response to painful cold stimulation was assessed using an Incremental Hot/Cold Plate (IITC Life Sciences) set at 4±0.1° C. […] The latency to withdraw the paw was measured to the nearest 0.01 seconds. […]

[4] = tested on: rats subjected to L5 SNL; test: Pain threshold, Randall-Selitto test (paw pressure threshold); format: in vivo; settings: rat L5 SNL; 3 mg/kg po every other day for 4 weeks; versus placebo; FIG. 4
Source text: as §1, §2, §3, §4
Mechanical nociceptive thresholds were evaluated using an Analgesy-Meter (Ugo Basile, Comerio, Italy) (see, e.g., Raghavendra et al., 2003). […] The pressure required to elicit paw withdrawal, the paw pressure threshold, in grams, was determined. […]

[5] = tested on: tumour necrosis factor α (TNFα); test: RT-qPCR analysis of TNFα expression in spinal cord after nerve injury; format: in vivo; settings: rat; 14 days after injury; 3 mg/kg po every other day; versus placebo; FIG. 5
Experimental: (§5) Two groups of 11 rats were studied. In each group, the rats received partial nerve ligation of the left sciatic nerve (L5 SNL), as described above. In one group, the rats were treated with test compound; in the other group, the rats were treated with placebo. In each group, 8 animals were used for behavioral studies (for 28 days following surgery), as described below. In each group, 3 animals were used for tissue analysis (at 14 days following surgery), as described below.
(§6) Rats were treated with treatment solution or a placebo, orally, starting on the day after surgery and subsequently every other day for 4 weeks.
(§7) For treated animals, treatment solution was administered orally (po), by oral gavage, to give a dose of 3 mg/kg.
(§8) Fourteen days after injury, three rats from each group were sacrificed. […] Total RNA was isolated with the Qiagen RNeasy® Mini kit and reverse transcribed with a QuantiTect® Reverse Transcription kit (Qiagen). Levels of tumour necrosis factor α (TNFα) and tumour necrosis factor receptor 1 (TNFR1) expression were quantitated in triplicate, relative to glyceraldehyde 3-phosphate dehydrogenase (GAPDH) and triplicate non-template controls for each gene, by RT-qPCR analysis on a LightCycler® 480 instrument with LightCycler® SYBR® Green 1 Master reagent (Roche). […]

[6] = tested on: tumour necrosis factor receptor 1 (TNFR1); test: RT-qPCR analysis of TNFR1 expression in spinal cord after nerve injury; format: in vivo; settings: rat; 14 days after injury; 3 mg/kg po every other day; versus placebo; FIG. 6
Experimental: as §5, §6, §7, §8

[7] = tested on: brain-derived neurotrophic factor (BDNF); test: Immunocytochemistry of BDNF in spinal cord after nerve injury; format: in vivo; settings: rat; 14 days after injury; 3 mg/kg po every other day; versus placebo; FIG. 7
Experimental: as §5, §6
For treated animals, treatment solution was administered orally (po), by oral gavage, to give a dose of 3 mg/kg. […]
Multichannel fluorescence (DAPI-FITC-Texas Red filter set) images were captured using a Zeiss LSM 700 laser-scanning confocal microscope. […] Axiovision software was used to collect information on pixel immunoreactivity used for quantitative purposes. […]
FIG. 7 is a bar graph showing the BDNF level (arbitray units) in the dorsal horn ipsilateral to peripheral nerve injury for (a) rats treated with placebo and (b) rats treated with BOBA-001. Five serial sections per injured cord analysed, from 3 animals per group (n=3). […]

[8] = tested on: rats subjected to L5 SNL; test: Standard model for neuropathic pain (L5 SNL), behavioural studies overall; format: in vivo; settings: rat L5 SNL; treated for 4 weeks, 3 mg/kg po every other day; versus placebo
Source text: as §1, §2
as §3, with “nerve. The nerve was carefully cleared of surrounding connective tissues at a site near the trochanter just distal to the point at which the posterior biceps semitendinosus nerve branches off the common sciatic nerve.” for “nerve.”
as §4

[9] = tested on: axonal outgrowth; settings: models of nerve injury; earlier work of the Applicant (Borthwick et al., 2016); cited from earlier work

For Cc1ccc(C)c2oc(-c3nc(-c4ccc(C(=O)O)cc4)no3)cc12 [BOBA-001, 4-(5-(4,7-Dimethylbenzofuran-2-yl)-1,2,4-oxadiazol-3-yl)benzoic acid], the “mechanical paw withdrawal threshold (von Frey)” value [1] was “significant improvement”, the “hot plate paw withdrawal (thermal threshold)” value [2] was “significant improvement” and the “cold plate paw withdrawal (thermal threshold)” value [3] was “significant improvement”. For the same compound, the “Randall Sellito paw withdrawal threshold (mechanical threshold)” value [4] was “significant improvement”, the “TNFα: GAPDH expression ratio in the dorsal horn ipsilateral to peripheral nerve injury” value [5] was “significantly down-regulated” and the “TNFR1: GAPDH expression ratio in the dorsal horn ipsilateral to peripheral nerve injury” value [6] was “significantly down-regulated”. The “BDNF level in the dorsal horn ipsilateral to peripheral nerve injury” value [7] was “significantly down-regulated”, the amelioration of pain [8] was “significant amelioration of pain” and the axonal outgrowth [9] was “causes axonal outgrowth”.
